Measured values published in patent publication US5994342A, “3-(substituted methyl)-4-oxa-1-azabicyclo[3.2.0]heptan-7-one derivatives useful as antitumor agents” (priority 1994, dated 1999).
≈ marks a conversion by molar mass, not a printed value. Counter-ions that a name gives are not always drawn.

Tested on: KB cells
Assay: In vitro KB cell cytotoxicity assay (crystal violet)
Assay type: cell-based
Conditions: Homo sapiens, 72 h, 3 days culture, read-out: KB Cell Cytotoxicity TD50
Method: In Vitro KB Cell Cytotoxicity Assay In vitro KB cell cytoxocity assay was done by modification of the crystal violet assay ([…] et al., Anal Biochem., 159, 109-113 (1986). KB cells were cultivated in Eagles minimum essential medium supplemented with 10% calf serum and incubated at 37° C. in a humidified 5% CO2 atmosphere to prepare a cell stock. Cells were counted using a neubauer hemocytometer and seeded in 96 well plates at 100 μl of 3×10^4 cells/ml and cultured for one day. […] Control wells were identical except that test compound was absent. These were cultured for three days. Then the cells were fixed with addition of 20 μl of 25% glutaraldehyde for 15 minutes, washed with water and dried. Then stained with 100 μl of 0.05% crystal violet for 15 minutes, washed with water and dried. The wells are eluted with […] of 0.05M NaH2 PO4 /ethanol (1:1 v/v) and read at OD540 on a multiscan spectrophotometer. Inhibition value of cell growth was calculated based on optical density using the following equation; [formula] TD50 values were calculated from linear regression ines of the log-logit plot.

| Compound | IC50 [µg/mL] |
| --- | --- |
| N[C@@H](CC(=O)O)C(=O)N[C@@H](Cc1ccccc1)C(=O)NCC1CN2C(=O)CC2O1 (stereo partly drawn) [Example 64B, (3RS,5RS)-3-N-[L-2-N-(L-2-Amino-3-carboxypropanoyl)amino-3-phenylpropanoyl]aminomethyl-4-oxa-1-azabicyclo[3.2.0]heptan-7-one] | 2.65 (≈ 6.55 µM) |
| C[C@@H](NC(=O)OCc1ccccc1)C(=O)N[C@@H](CO)C(=O)OCC1CN2C(=O)CC2O1 (stereo partly drawn) [Example 71, (3RS,5SR)-3-[L-2-N-(D-2-N-Benzyloxycarbonylaminopropanoyl)amino-3-hydroxypropanoyl]oxymethyl-4-oxa-1-azabicyclo[3.2.0]heptan-7-one] | 0.549 (≈ 1.26 µM) |
| C#CC(=O)NC[C@@H]1CN2C(=O)C[C@H]2O1 (racemic) [Example 20, (3RS,5RS)-3-[N-Propynoylaminomethyl]-4-oxa-1-azabicyclo[3.2.0]heptan-7-one] | 0.333 (≈ 1.71 µM) |
| N#Cc1ccc(C(=O)NC[C@@H]2CN3C(=O)C[C@H]3O2)cc1 (racemic) [Example 30, (3RS,5RS)-3-[N-(4-Cyanobenzoyl)aminomethyl]-4-oxa-1-azabicyclo[3.2.0]heptan-7-one] | 0.378 (≈ 1.39 µM) |
| CC(=O)N[C@@H](CCCCNC(=O)OCc1ccccc1)C(=O)OCC1CN2C(=O)CC2O1 (stereo partly shown) [Example 78] | 3.38 (≈ 7.55 µM) |
| C[C@H](N)C(=O)NCC1CN2C(=O)CC2O1 (stereo partly drawn) [Example 50B, (3RS,5RS)-3-N-(L-2-Aminopropanoyl)aminomethyl-4-oxa-1-azabicyclo[3.2.0]heptan-7-one hydrochloride] | 0.657 |
| COc1ccc(C(=O)NC[C@@H]2CN3C(=O)C[C@H]3O2)cc1 (racemic) [Example 25, (3RS,5RS)-3-[N-(4-Methoxybenzoyl)aminomethyl]-4-oxa-1-azabicyclo[3.2.0]heptan-7-one] | 0.255 (≈ 0.923 µM) |
| O=C(CO)NC[C@@H]1CN2C(=O)C[C@H]2O1 (racemic) [Example 12, (3RS,5RS)-3-[N-(Hydroxyacetyl)aminomethyl]-4-oxa-1-azabicyclo[3.2.0]heptan-7-one] | 0.125 (≈ 0.624 µM) |
| O=C(Cn1ccnn1)NC[C@@H]1CN2C(=O)C[C@H]2O1 (racemic) [Example 10, (3RS,5RS)-3-[N-(1,2,3-Triazole-1-yl)acetylaminomethyl]-4-oxa-1-azabicyclo[3.2.0]heptan-7-one] | 0.282 (≈ 1.12 µM) |
| O=C(N[C@@H](COCc1ccccc1)C(=O)OCC1CN2C(=O)CC2O1)OCc1ccccc1 (stereo partly drawn) [Example 72, (3RS,5SR)-3-L-(2-N-Benzyloxycarbonylamino-3-benzyloxypropanoyl)oxymethyl-4-oxa-1-azabicyclo[3.2.0]heptan-7-one] | 1.67 (≈ 3.67 µM) |
| O=COCCCCCC(=O)NC[C@@H]1CN2C(=O)C[C@H]2O1 (racemic) [Example 14, (3RS,5RS)-3-[N-(6-Formyloxyhexanoyl)aminomethyl]-4-oxa-1-azabicyclo[3.2.0]heptan-7-one] | 0.243 (≈ 0.855 µM) |
| CC(=O)NCCCCCC(=O)NC[C@@H]1CN2C(=O)C[C@H]2O1 (racemic) [Example 17, (3RS,5RS)-3-[N-(6-Acetylaminohexanoyl)aminomethyl]-4-oxa-1-azabicyclo[3.2.0]heptan-7-one] | 0.439 (≈ 1.48 µM) |
| N[C@@H](CO)C(=O)NCC1CN2C(=O)CC2O1 (stereo partly drawn) [Example 76B, (3RS,5RS)-3-[N-(L-2-Amino-3-hydroxypropanoyl)aminomethyl]-4-oxa-1-azabicyclo[3.2.0]heptan-7-one hydrochloride] | 8.81 |
| O=COCC(=O)NC[C@@H]1CN2C(=O)C[C@H]2O1 (racemic) [Example 11, (3RS,5RS)-3-[N-(Formyloxyacetyl)aminomethyl]-4-oxa-1-azabicyclo[3.2.0]heptan-7-one] | 0.147 (≈ 0.644 µM) |
| [N-]=[N+]=NCCCCCC(=O)NC[C@@H]1CN2C(=O)C[C@H]2O1 (racemic) [Example 15, (3RS,5RS)-3-[N-(6-Azidohexanoyl)aminomethyl]-4-oxa-1-azabicyclo[3.2.0]heptan-7-one] | 0.254 (≈ 0.903 µM) |
| C[C@@H](NC(=O)OCc1ccccc1)C(=O)N[C@@H](COCc1ccccc1)C(=O)OCC1CN2C(=O)CC2O1 (stereo partly drawn) [Example 73, (3RS,5R)-3-[L-2-N-(D-2-N-Benzyloxycarbonylaminopropanoyl)amino-3-benzyloxypropanoyl]oxymethyl-4-oxa-1-azabicyclo[3.2.0]heptan-7-one] | 2.22 (≈ 4.22 µM) |
| O=C(O)CCC(=O)NC[C@H]1CN2C(=O)C[C@@H]2O1 (relative stereo) [Example 18, Sodium{N-[(3RS,5RS)-7-oxo-1-aza-4-oxabicyclo[3.2.0]hept-3-yl]methylamino}succinate] | 2.85 |

| Compound | IC50 [µg/mL] |
| --- | --- |
| CC(=O)NC[C@@H]1CN2C(=O)C[C@H]2O1 [Example 3, (3R,5R)-3-(N-Acetylaminomethyl)-4-oxa-1-azabicyclo[3.2.0]heptan-7-one] | 3.15 (≈ 17.1 µM) |
| O=C(NC[C@@H]1CN2C(=O)C[C@H]2O1)c1cc(F)c(F)cc1F (racemic) [Example 29, (3RS,5RS)-3-[N-(2,4,5-Trifluorobenzoyl)aminomethyl]-4-oxa-1-azabicyclo[3.2.0]heptan-7-one] | 0.535 (≈ 1.78 µM) |
| O=C(N[C@@H](CO)C(=O)OCC1CN2C(=O)CC2O1)OCc1ccccc1 (stereo partly drawn) [Example 70, (3RS,5SR)-3-(L-2-N-Benzyloxycarbonylamino-3-hydroxypropanyl)oxymethyl-4-oxa-1-azabicyclo[3.2.0]heptan-7-one] | 0.352 (≈ 0.966 µM) |
| CC(=O)N[C@@H](C(=O)OC[C@H]1CN2C(=O)C[C@@H]2O1)C(C)C (mixture of isomers) [Example 61, (3RS,5SR)-3-(D-2-Acetylamino-3-methylbutyryl)oxymethyl-4-oxa-1-azabicyclo[3.2.0]heptan-7-one] | 0.385 |
| O=C(CCCCCBr)NC[C@@H]1CN2C(=O)C[C@H]2O1 (racemic) [Example 13, (3RS,5RS)-3-[N-(6-Bromohexanoyl)aminomethyl]-4-oxa-1-azabicyclo[3.2.0]heptan-7-one] | 0.491 (≈ 1.54 µM) |
| O=C(NC[C@@H]1CN2C(=O)C[C@H]2O1)c1cccnc1 (racemic) [Example 32, (3RS,5RS)-3-[N-[(Pyridin-3-yl)carbonyl]aminomethyl]-4-oxa-1-azabicyclo[3.2.0]heptan-7-one] | 0.78 (≈ 3.15 µM) |
| O=C(CCCCCn1ccnn1)NC[C@@H]1CN2C(=O)C[C@H]2O1 (racemic) [Example 16, (3RS,5RS)-3-[N-[(1,2,3-Triazol-1-yl)hexanoyl]aminomethyl]-4-oxa-1-azabicyclo[3.2.0]heptan-7-one] | 0.318 (≈ 1.03 µM) |
| CC(C)C(=O)NC[C@@H]1CN2C(=O)C[C@H]2O1 (racemic) [Example 5, (3RS,5RS)-3-[N-(2-Methylpropanoyl)aminomethyl]-4-oxa-1-azabicyclo[3.2.0]heptan-7-one] | 0.181 (≈ 0.853 µM) |
| O=C(NC[C@@H]1CN2C(=O)C[C@H]2O1)c1cc(F)ccc1F (racemic) [Example 28, (3RS,5RS)-3-[N-(2,5-Difluorobenzoyl)aminomethyl]-4-oxa-1-azabicyclo[3.2.0]heptan-7-one] | 0.379 (≈ 1.34 µM) |
| Cc1ccc(S(=O)(=O)NC[C@H]2CN3C(=O)C[C@H]3O2)cc1 (racemic) [Example 36, (3RS,5RS)-3-[N-(4-Toluenesulfonyl)aminomethyl]-4-oxa-1-azabicyclo[3.2.0]heptan-7-one] | 0.338 (≈ 1.14 µM) |
| [N-]=[N+]=NCC(=O)NC[C@@H]1CN2C(=O)C[C@H]2O1 (racemic) [Example 9, (3RS,5RS)-3-[N-(Azidoacetyl)aminomethyl]-4-oxa-1-azabicyclo[3.2.0]heptan-7-one] | 0.296 (≈ 1.31 µM) |
| O=C(NC[C@@H]1CN2C(=O)C[C@H]2O1)OCc1ccccc1 (racemic) [Example 21, (3RS,5RS)-3-[N-(Benzyloxycarbonyl)aminomethyl]-4-oxa-1-azabicyclo[3.2.0]heptan-7-one] | 0.34 (≈ 1.23 µM) |
| COc1ccc(C(=O)NC[C@@H]2CN3C(=O)C[C@H]3O2)cc1OC (racemic) [Example 26, (3RS,5RS)-3-[N-(3,4-Dimethoxybenzoyl)aminomethyl]-4-oxa-1-azabicyclo[3.2.0]heptan-7-one] | 0.249 (≈ 0.813 µM) |
| O=C(NC[C@@H]1CN2C(=O)C[C@H]2O1)c1ccc(F)cc1 (racemic) [Example 27, (3RS,5RS)-3-[N-(4-Fluorobenzoyl)aminomethyl]-4-oxa-1-azabicyclo[3.2.0]heptan-7-one] | 0.24 (≈ 0.908 µM) |
| O=C(NC[C@@H]1CN2C(=O)C[C@H]2O1)c1ccc(O)cc1 (racemic) [Example 24, (3RS,5RS)-3-[N-(4-Hydroxybenzoyl)aminomethyl]-4-oxa-1-azabicyclo[3.2.0]heptan-7-one] | 0.276 (≈ 1.05 µM) |
| O=C1C[C@H]2O[C@@H](CNS(=O)(=O)c3ccc(Cl)cc3)CN12 (racemic) [Example 37, (3RS,5RS)-3-[N-(4-Chlorobenzenesulfonyl)aminomethyl]-4-oxa-1-azabicyclo[3.2.0]heptan-7-one] | 0.484 (≈ 1.53 µM) |
| C=CCCC(=O)NC[C@@H]1CN2C(=O)C[C@H]2O1 (racemic) [Example 19, (3RS,5RS)-3-[N-(4-Pentenoyl)aminomethyl]-4-oxa-1-azabicyclo[3.2.0]heptan-7-one] | 0.266 (≈ 1.19 µM) |
